Source: US9206212B2, “Actinomycete strain composition and its use” (CENTRE NATIONAL DE LA RECHERCHE SCIENTIFIQUE, priority 2011, dated 2015)
Where a SMILES comes first, the peptide text is derived from it. Bridges are numbered along the chain shown (N, C = ends). [ ]: non-standard residue; d: D form. The star is where a group is joined. Ileψ(thiazoline)Cys = CC[C@H](C)[C@H](N)C1=N[C@H](C(=O)*)CS1; dOrn = NCCC[C@@H](N)C(=O)O

Assays:
Streptomyces sp. BG76 = test: Antibiotic sensibility of the strain; assay type: cell-based; design: key to Antibiotic sensibility: S: sensitive; R: resistant; settings: for Antibiotic sensibility: amount given with each antibiotic (30 μg, 300 U, 10 μg, 10 U, 250 μg)
[1] = Solubility of the antibiotic; assay type: physicochemical; settings: methanol and water
[2] = Mineral phosphate solubilization test
[3] = system: Micrococcus luteus ATCC 381 (ML); test: Antimicrobial bioassay, paper filter disk technique (agar diffusion); assay type: cell-based
Experimental: (§1) The retention time of the main peaks D1 and D2 were 15.62 and 17.99 min, respectively. These fractions were checked again for both activities with mineral phosphate solubilization test and anti microbial bioassay, against ML, BS, PU and MR using the paper filter disk technique.
(§2) The purified Viridomycin (compound 1) was checked for anti microbial bioassay, against Micrococcus luteus ATCC 381 (ML), Bacillus subtilis ATCC 9524 (BS) and the phytopathogenic fungi Pythium ultimum (PU) and Mucor ramannianus NRRL 1829 (MR) using the paper filter disk technique.

[4] = system: Bacillus subtilis ATCC 9524 (BS); test: as above; assay type: cell-based
Experimental: as §1, §2

[5] = system: Mucor ramannianus NRRL 1829 (MR); test: as above; assay type: cell-based
Experimental: as §1, §2

Pythium ultimum (PU) = test: as above; assay type: cell-based
Experimental: as §1, §2

[6] = Mineral phosphate solubilization test; remark: listed apart in the source
[7] = HPLC peak of fraction D, FIG. 4
[8] = purified Compound 1 at final concentration 98.5 mg·mL^−1
[9] = filter disc i.d. 6 mm, c = 20 μg/mL, 20 μL/disc

NS(N)(=O)=O [Sulfamides]
Sensitivity of the strain to the antibiotic (in words) (Streptomyces sp. BG76): resistant | Antibiotic sensibility (Streptomyces sp. BG76): R

Gentamycine
Sensitivity of the strain to the antibiotic (in words) (Streptomyces sp. BG76): sensitive | Antibiotic sensibility (Streptomyces sp. BG76): S

Tris (3-imino-4-oxo-cyclohexa-1,5-diene-carbaldehydro) iron (III) [Compound 1]
Solubility [1]: soluble in methanol and water | Mineral phosphate solubilization activity (in words) [2, 7]: mineral phosphate solubilization activities | Concentration of solubilized Phosphate from TC [2, 8]: 135.2 µg/mL | Diameter of microbial growth inhibition zone [3, 9]: 45 mm | Antimicrobial activity (in words) ([3]; on the standard media): inhibited | Diameter of microbial growth inhibition zone [4, 9]: 29 mm | Antimicrobial activity (in words) ([4]; on the standard media): inhibited | Diameter of microbial growth inhibition zone [5, 9]: 38 mm | Antimicrobial activity (in words) ([5]; on the standard media): inhibited | Diameter of microbial growth inhibition zone (Pythium ultimum (PU); [9]): 27 mm | Antimicrobial activity (in words) (Pythium ultimum (PU); on the standard media): inhibited | Mineral phosphate solubilization activity (in words) [6, 7]: mineral phosphate solubilization activities | Concentration of solubilized Phosphate from RP [6, 8]: 63.7 µg/mL

CC[C@H](C)[C@H](N)C1=N[C@H](C(=O)N[C@@H](CC(C)C)C(=O)N[C@H](CCC(=O)O)C(=O)N[C@H](C(=O)N[C@H]2CCCCNC(=O)[C@H](CC(N)=O)NC(=O)[C@@H](CC(=O)O)NC(=O)[C@H](Cc3cnc[nH]3)NC(=O)[C@@H](Cc3ccccc3)NC(=O)[C@H]([C@@H](C)CC)NC(=O)[C@@H](CCCN)NC2=O)[C@@H](C)CC)CS1 [Bacitracine] ({Ileψ(thiazoline)Cys}-L[dE]IK[dOrn]I[dF]H[dD]N; lactam 4-C)
Sensitivity of the strain to the antibiotic (in words) (Streptomyces sp. BG76): sensitive | Antibiotic sensibility (Streptomyces sp. BG76): S

CC(=O)OCC1=C(C(=O)O)N2C(=O)[C@@H](NC(=O)Cc3cccs3)[C@H]2SC1 [Cefalotin]
Sensitivity of the strain to the antibiotic (in words) (Streptomyces sp. BG76): sensitive | Antibiotic sensibility (Streptomyces sp. BG76): S

Polymyxin B
Sensitivity of the strain to the antibiotic (in words) (Streptomyces sp. BG76): sensitive | Antibiotic sensibility (Streptomyces sp. BG76): S

CO[C@@H]1[C@@H](OC(N)=O)[C@@H](O)[C@H](Oc2ccc3c(O)c(NC(=O)c4ccc(O)c(CC=C(C)C)c4)c(=O)oc3c2C)OC1(C)C [Novobiocine]
Sensitivity of the strain to the antibiotic (in words) (Streptomyces sp. BG76): sensitive | Antibiotic sensibility (Streptomyces sp. BG76): S
